Results taken from the METLIN SMRT retention time set (Domingo-Almenara et al. 2019).

Test: gradient 5% acetonitrile 3 min, to 50% in 2 min, to 85% in 15 min, held 3 min, 100 µL/min
Settings: column: Zorbax Extend-C18 2.1 x 50 mm; eluents: water / acetonitrile, 0.1% formic acid
How it was run: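 Standards, all pure, were combined into mixtures of ~100 molecules and run at 100 μL/min on a Zorbax Extend-C18 column (2.1 × 50 mm, 1.8 μm) with water and acetonitrile, each containing 0.1% formic acid. A coupled quadrupole time-of-flight mass spectrometer operated in positive and negative ionization mode. Retention time values come from computationally picked adduct peaks, each inspected manually.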

Going from COc1ccc(CNC(=O)C2CCN(c3nnc4cccc(C)n34)CC2)cc1 to O=C(NCc1ccccc1C(F)(F)F)C1CCN(c2cnc3nccnc3c2)CC1, the RP-LC retention time rises from 646 s to 747 s.

Compared with CCOC(=O)c1cn(Cc2ccccc2C)c2nc(C)ccc2c1=O, CCOC(=O)c1nc(NCCc2ccccc2Cl)c2c(C)noc2n1 is lower in RP-LC retention time: 909 s for the first, 904 s for the second.

Going from Cc1ccccc1C(=O)CC1(O)C(=O)Nc2ccc(Br)cc21 (stereo not drawn) to Cc1ccc(NC(=O)Cn2nc(N(C)C)c3ccccc3c2=O)cc1F, the RP-LC retention time rises from 804 s to 920 s.

First: Cc1nc(N2CCN(c3ccccn3)CC2)nc2c1C(=O)CC(C)(C)C2
Second: Cc1cccc(NC(=O)Cn2ncc3c(N4CCN(c5ccccn5)CC4)ncnc32)c1C
The RP-LC retention time of the first is higher: 677 s for the first, 609 s for the second.

Compared with CC1=C(c2ccccc2)S(=O)(=O)N=C1N1CCCN(C(=O)c2cc(C)ccc2C)CC1, Cc1ccc(NC(=O)Cn2cc(-c3ccccc3)c(N(C)C)n2)c(F)c1 is higher in RP-LC retention time: 870 s for the first, 997 s for the second.

Going from CN(C)S(=O)(=O)c1ccc(NC(=O)N2CCCC(C(=O)Nc3ccc(F)cc3)C2)s1 (stereo not drawn) to O=C(Nc1ccc(F)cc1)C1CCCN(c2nc3ccsc3c(=O)n2Cc2ccc(F)cc2)C1 (stereo not drawn), the RP-LC retention time rises from 830 s to 996 s.

Going from O=C(C1CCN(S(=O)(=O)N2CCOCC2)CC1)N1CCN(Cc2noc3ccccc23)CC1 to O=C(C1CCN(S(=O)(=O)Cc2ccc(F)cc2)CC1)N1CCOCC1, the RP-LC retention time rises from 645 s to 705 s.

Going from Cc1c(C)n(CCCN2CCOCC2)c2ncn3nc(C(C)N4C(=O)c5ccccc5C4=O)nc3c12 (stereo not drawn) to Fc1ccccc1CN1CCc2nc(N3CCOCC3)ncc2C1, the RP-LC retention time falls from 662 s to 590 s.

First: CNC(=O)CCc1nc2ccccc2n(CC(=O)NCc2ccccc2Br)c1=O
Second: CCCn1c(=O)c2cc(C(=O)NCc3ccc(C)cc3)nn2c2ccccc21
The RP-LC retention time of the first is lower: 700 s for the first, 1030 s for the second.

Going from O=C(CSc1nc2ncccc2n2cccc12)N1CCN(c2ccccn2)CC1 to Cc1nnc(-c2ccc3ccn(CC(=O)N4CCN(c5ncccn5)CC4)c3c2)o1, the RP-LC retention time rises from 592 s to 692 s.

First: CC1=NS(=O)(=O)N(Cc2ccccc2)C=C1C(=O)OCc1cc(F)ccc1F
Second: CCOC(=O)C1=C(CN(C)Cc2ccccc2)NC(=O)NC1c1cccs1 (stereo not drawn)
The RP-LC retention time of the first is higher: 1080 s for the first, 642 s for the second.

Going from Cc1nnc(SCCC(=O)Nc2nc(-c3ccccc3)ns2)s1 to O=C(Nc1ccc(OCc2nnc(-c3ccccc3)o2)cc1)c1cncc(Br)c1, the RP-LC retention time falls from 890 s to 883 s.

Compared with Cc1ccc(-c2noc(C3CCCN3S(=O)(=O)c3cc(C)c(C)cc3C)n2)cc1 (stereo not drawn), Cc1cc(C)cc(NC(=O)C2CCCN2S(C)(=O)=O)c1 (stereo not drawn) is lower in RP-LC retention time: 1340 s for the first, 782 s for the second.

Compared with O=C(NCc1cccs1)C1CN(S(=O)(=O)c2cccnc2)CC12CCCCC2 (stereo not drawn), CCc1nc(-c2csc(S(=O)(=O)N3CCCC(C(=O)NCc4cccs4)C3)c2)no1 (stereo not drawn) is higher in RP-LC retention time: 856 s for the first, 952 s for the second.

Going from O=C(Cn1cnc2c(sc3nc(-c4ccccc4)ccc32)c1=O)NC1CCCCC1 to O=C(NC1CCN(Cc2ccccc2)CC1)c1cc2n(n1)CCCN(Cc1ccc(F)cc1)C2=O, the RP-LC retention time falls from 972 s to 658 s.

Compared with CCCn1cc2c3c(cccc31)CN(C(=O)COc1ccc(F)cc1)CC2, CCn1cc2c3c(cccc31)CN(C(=O)Nc1ccc(OC)c(Cl)c1)CC2 is lower in RP-LC retention time: 1030 s for the first, 977 s for the second.

Going from Cc1ccc(NC(=O)N2CCC(CC(=O)N3CCCCC3)CC2)cc1Cl to COC(=O)c1c(C)[nH]c(C(=O)N2CCC(CC(=O)N3CCN(c4ccc(OC)cc4)CC3)CC2)c1C, the RP-LC retention time falls from 861 s to 702 s.

Going from CN(C)CC[C@@H](c1ccc(Cl)cc1)c1ccccn1 to OC(CN1CCCCC1)c1ccc(/C=C/c2ccc(Cl)cc2)cc1 (stereo not drawn), the RP-LC retention time rises from 659 s to 766 s.

Going from CS(=O)(=O)N1CCCc2cc(C(=O)N3CCCCCC3)ccc21 to COc1ccc(F)cc1S(=O)(=O)N1C[C@@H](F)C[C@H]1C(=O)N1CCCCC1, the RP-LC retention time falls from 800 s to 769 s.

Compared with COCCN1C(=O)CCc2cc(NS(=O)(=O)c3cccc(F)c3)ccc21, CN1CCCn2cc(S(=O)(=O)Nc3ccc(Cl)cc3)cc2C1=O is lower in RP-LC retention time: 748 s for the first, 714 s for the second.

First: CC(C)N(CCCNC(=O)c1cc2sccc2n1C)Cc1ccccc1
Second: CCCCNC(=O)c1ccc(-n2ccnc2SCC(=O)Nc2ccccc2)cc1
The RP-LC retention time of the first is lower: 682 s for the first, 746 s for the second.

Going from COc1ccc(NC(=O)c2cc(C(C)C)n3nccc3n2)c(C)c1 to COc1ccc2c(C)c(C(=O)NCCn3ncccc3=O)oc2c1, the RP-LC retention time falls from 1250 s to 669 s.

First: CCc1ccc(OCC(=O)Nc2nnc(C3CC(=O)N(c4ccccc4)C3)o2)cc1 (stereo not drawn)
Second: Cc1nc2cc(N3CC(C(=O)NCc4ccccc4Cl)CC3=O)ccc2o1 (stereo not drawn)
The RP-LC retention time of the first is higher: 799 s for the first, 734 s for the second.

Compared with COc1ccc2c(CCNC(=O)c3cc(OC)c(OC)c(OC)c3)c[nH]c2c1, COc1cc(-n2c(=O)c3ccccc3n(Cc3ccccc3C#N)c2=O)cc(OC)c1OC is higher in RP-LC retention time: 758 s for the first, 805 s for the second.

First: O=C1CCC2(CNC(=O)c3cnccn3)CCCC=C2N1 (stereo not drawn)
Second: CCOC(=O)c1csc(NC(=O)Cn2nc3c(cc2=O)CCCC3)n1
The RP-LC retention time of the first is lower: 623 s for the first, 727 s for the second.

First: CCCN1CCN(C(=O)c2cn(-c3cc(N4CCSCC4)ncn3)cn2)CC1
Second: Cc1cc(C)n(-c2ccnc(N3CCC(C(=O)N4CCCC4)CC3)n2)n1
The RP-LC retention time of the first is lower: 605 s for the first, 739 s for the second.

First: COc1ccccc1NC(=O)N1CCCC1c1nncn1-c1ccccc1 (stereo not drawn)
Second: COc1ccccc1NC(=O)Oc1cccc(OC(=O)c2ccccc2)c1
The RP-LC retention time of the first is higher: 711 s for the first, 653 s for the second.

Compared with CCOC(=O)C1CCN(C(=O)CN2C(=O)COc3ccc(C(=O)N(C)C)cc32)CC1, CCc1c(C2CCN(C(=O)Nc3ccc(C)c(C)c3)CC2)noc1N is higher in RP-LC retention time: 648 s for the first, 793 s for the second.

First: CCOC(=O)N1CCN(c2nc(F)c3c(c2F)S(=O)(=O)CCN3Cc2cccnc2)CC1
Second: CCc1noc(-c2cccnc2N2CCCN(Cc3cc(F)cc(F)c3)CC2)n1
The RP-LC retention time of the first is lower: 636 s for the first, 673 s for the second.

First: CCOc1ccc(-n2c(=O)c3sccc3n(Cc3nc(-c4cccc(OC)c4)no3)c2=O)cc1
Second: CCOc1ccccc1-c1noc(Cn2c(=O)n(Cc3cccc(OC)c3)c(=O)c3sccc32)n1
The RP-LC retention time of the first is lower: 1000 s for the first, 1110 s for the second.

First: O=C(O)c1cnc(NCc2cccnc2)nc1-c1cccnc1
Second: CSc1ncccc1C(=O)N1CCc2nc(C)ncc2C1
The RP-LC retention time of the first is higher: 875 s for the first, 606 s for the second.

Compared with CSc1ccc(CNC(=O)C2CCCN(c3nn4c(=O)c5c(nc4s3)CCCC5)C2)cc1 (stereo not drawn), CCCCc1ccc(NC(=O)CSc2ccc(N3CCCC(C(=O)NC4CC4)C3)nn2)cc1 (stereo not drawn) is higher in RP-LC retention time: 792 s for the first, 800 s for the second.

Going from COc1ccc(N2C(=O)CN(Cc3ccccc3C)[C@H]3CS(=O)(=O)C[C@H]32)cc1 to COc1ccccc1CNC(=O)C1CCN(S(C)(=O)=O)c2cc(Cl)ccc2O1 (stereo not drawn), the RP-LC retention time rises from 812 s to 910 s.

First: CCOc1ccc(NC(=O)c2cnc3c(c2)c(=O)n(C)c(=O)n3-c2ccc(F)cc2)cc1
Second: Cc1c(-c2noc(-c3ccc4cc[nH]c4c3)n2)nnn1-c1ccc(F)cc1
The RP-LC retention time of the first is lower: 866 s for the first, 996 s for the second.

First: CC(C)CNC(=O)c1ccc2nc(CCc3ccc(NC(=O)C(C)C)cc3)[nH]c2c1
Second: COc1ccc(CC(C)(O)CNC(=O)c2cccc(C(F)(F)F)c2)cc1 (stereo not drawn)
The RP-LC retention time of the first is lower: 644 s for the first, 823 s for the second.

First: CC(=O)N1CCc2cc(N3CC(C(=O)Nc4ccc5c(c4)OCCO5)CC3=O)ccc21 (stereo not drawn)
Second: Cn1nc(C(=O)N2CCCC(C(=O)Nc3ccccc3)C2)c2c1CCN(C(=O)C(C)(C)C)C2 (stereo not drawn)
The RP-LC retention time of the first is lower: 667 s for the first, 745 s for the second.

Compared with CC(C)S(=O)(=O)c1cc2c(cc1NC(=O)c1ccccc1F)n(C)c(=O)n2C, O=C1CC(c2ccccc2)Cc2[nH]c(=O)c(C(=O)Nc3cccc(C(F)(F)F)c3)cc21 (stereo not drawn) is higher in RP-LC retention time: 799 s for the first, 1020 s for the second.

Compared with CC(C)CCNC(=O)C1CCCN(c2cc(=O)n(C)c(=O)n2C)C1 (stereo not drawn), CC(C)c1ccc(S(=O)(=O)N(CCN2CCCCC2C)CC(=O)N2CCNCC2)cc1 (stereo not drawn) is lower in RP-LC retention time: 677 s for the first, 610 s for the second.

Compared with Cc1c(-c2ccnc(N3CCN(C)CC3)n2)cnc2nc(-c3cccs3)nn12, Cc1cccc(N2CCN(c3cc(C)nc4c5c(C)cc(C)nc5nn34)CC2)n1 is lower in RP-LC retention time: 601 s for the first, 561 s for the second.

Compared with Cc1noc(C)c1Cc1ccc(C(=O)NCc2nn(C)c3c2CN(C)CC3)o1, Cc1cc(C)n(Cc2nc(-c3ccc(NC(=O)C(C)(C)C)cc3)oc2C)n1 is higher in RP-LC retention time: 578 s for the first, 904 s for the second.

Going from CCN(CC)C(=O)c1cnc2snc(C)c2c1N1CCC(C(=O)Nc2c(C)cc(C)cc2C)CC1 to Cc1noc(COC2CCN(C(=O)Cc3c[nH]c4ccccc34)CC2)n1, the RP-LC retention time falls from 901 s to 724 s.

Compared with Nc1cc(C2CCN(C(=O)Nc3ccccc3Cl)CC2)no1, CCN1CCCn2cc(S(=O)(=O)Nc3ccccc3)cc2C1=O is lower in RP-LC retention time: 698 s for the first, 666 s for the second.

First: CCCCNC(=O)Cc1csc(-n2nc(C)c(Cl)c2C)n1
Second: CCc1nc2c(NC(=O)CC3CCCCC3)cccn2n1
The RP-LC retention time of the first is lower: 763 s for the first, 960 s for the second.

First: O=C(CCc1nnn2c1CN(C(=O)c1nccc3ccccc13)CC2)N1CCCC1
Second: O=C(c1ccsc1)N1CCCC1(CO)Cc1ccccc1 (stereo not drawn)
The RP-LC retention time of the first is lower: 625 s for the first, 819 s for the second.
